Experimental data as given in US8957049B2, “Inhibitors of fatty acid amide hydrolase” (Infinity Pharmaceuticals, Inc., priority 2008, dated 2015).
pKi: −log10 of the molar value.

The compounds below were run against T1, human FAAH (Homo sapiens, UniProt O00519) (assay: Human FAAH biochemical inhibition assay (AMC arachidonoyl amide fluorescence)). Settings: class given in each Example, read-out: Activity (Ki, inhibition of human FAAH).
T1 construct: host or cells: COS-7 cells, transient transfection (FuGENE 6); 13,000 g membrane fraction solubilised in 1% Triton X-100
T1 sequence (O00519 1-579): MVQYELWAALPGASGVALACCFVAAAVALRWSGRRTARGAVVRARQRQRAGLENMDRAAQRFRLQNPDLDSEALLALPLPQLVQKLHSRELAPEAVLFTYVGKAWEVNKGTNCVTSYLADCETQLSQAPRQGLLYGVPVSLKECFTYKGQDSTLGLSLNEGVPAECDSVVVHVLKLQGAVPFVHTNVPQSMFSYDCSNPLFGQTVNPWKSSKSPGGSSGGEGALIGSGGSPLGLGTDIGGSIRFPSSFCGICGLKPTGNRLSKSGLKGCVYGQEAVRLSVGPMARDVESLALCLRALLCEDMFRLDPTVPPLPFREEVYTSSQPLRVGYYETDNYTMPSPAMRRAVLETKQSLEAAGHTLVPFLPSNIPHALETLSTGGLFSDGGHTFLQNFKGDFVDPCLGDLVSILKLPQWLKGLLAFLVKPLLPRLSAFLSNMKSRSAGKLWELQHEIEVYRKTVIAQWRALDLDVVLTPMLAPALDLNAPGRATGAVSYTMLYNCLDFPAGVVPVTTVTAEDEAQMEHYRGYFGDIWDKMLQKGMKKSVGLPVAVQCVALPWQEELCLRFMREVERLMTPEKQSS
Method in brief: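 Human FAAH from solubilized membranes of transiently transfected COS-7 cells, 0.1 mg/mL in 50 mM Hepes pH 7.5, 1 mM EDTA, 0.2% Triton X-100, preincubated 30 min at room temperature with 3-fold serially diluted inhibitor. Hydrolysis of AMC arachidonoyl amide read by fluorescence (ex 355/em 460 nm). Data fitted to single-site competitive inhibition with Km fixed at 9 μM.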

**Q.** `CN(CCc1ccc(B(O)O)c(F)c1)S(=O)(=O)c1ccccc1` [Compound 312] was tested. Which pKi did it give?
**A.** ≥ 8.00

**Q.** With `OB(O)c1ccc2cn(CCc3ccccc3)nc2c1` [Compound 314] as the compound, how does the pKi read?
**A.** ≥ 8.00

**Q.** With `OB(O)c1ccc2nn(CCc3ccccc3)cc2c1` [Compound 315] as the compound, how does the pKi read?
**A.** ≥ 8.00

**Q.** With `OB(O)c1ccc2c(cnn2Cc2ccccc2)c1` [Compound 316] as the compound, how does the pKi read?
**A.** ≥ 8.00

**Q.** With `OB(O)c1ccc2nc(-c3ccccc3)c(Br)n2c1` [Compound 317] as the compound, how does the pKi read?
**A.** ≥ 8.00

**Q.** `CC(C)(C)OC(=O)N1CCN(c2ccc(B(O)O)cc2)CC1` [Compound 318] was tested. Which pKi did it give?
**A.** 7.00 to 8.00

**Q.** `O=C(c1ccccc1)c1ccc2cc(B(O)O)ccc2n1` [Compound 319] was tested. Which pKi did it give?
**A.** ≥ 8.00

**Q.** How did the pKi turn out when `O=C(CCB(O)O)NCCc1ccccc1` [Compound 321] was run?
**A.** 6.00 to 7.00

**Q.** How did the pKi turn out when `O=C(CCB(O)O)N1CCN(C(=O)OCc2ccccc2)CC1` [Compound 322] was run?
**A.** 7.00 to 8.00

**Q.** With `CC(C)(C)OC(=O)N1CCN(C(=O)CCB(O)O)CC1` [Compound 323] as the compound, how does the pKi read?
**A.** 6.00 to 7.00

**Q.** How did the pKi turn out when `O=C(CCc1ccc(B(O)O)cc1)NCc1ccccc1` [Compound 324] was run?
**A.** 6.00 to 7.00

**Q.** With `OB(O)c1ccc(COc2ccc(B(O)O)cc2)cc1` [Compound 325] as the compound, how does the pKi read?
**A.** 6.00 to 7.00

**Q.** With `OB(O)c1ccc(COc2cccc(B(O)O)c2)cc1` [Compound 326] as the compound, how does the pKi read?
**A.** ≥ 8.00

**Q.** With `O=C(CCCC1CCN(Cc2ccc(B(O)O)cc2)CC1)c1ncco1` [Compound 329] as the compound, how does the pKi read?
**A.** 6.00 to 7.00

**Q.** How did the pKi turn out when `OB(O)c1ccc(-c2cn(Cc3ccccc3)nn2)cc1` [Example 117] was run?
**A.** ≥ 8.00

**Q.** `OB(O)c1ccc(Cn2cc(-c3ccccc3)nn2)cc1` [Example 122] was tested. Which pKi did it give?
**A.** 7.00 to 8.00
